Assay [1] deals with T1, CYP46A1 (Homo sapiens, UniProt Q9Y6A2). The experiment in a line: recombinant human CYP46A1 microsomes, cholesterol to 24-hydroxycholesterol, LC-MS/MS ([…] with testosterone as substrate). It is filed as biochemical.
The target of assay [2] is T1, CYP46A1. In words: turnover to 24-hydroxycholesterol by human CYP46A1 microsomes, LC-MS/MS. The format is biochemical.

T1 sequence (Q9Y6A2 whole entry): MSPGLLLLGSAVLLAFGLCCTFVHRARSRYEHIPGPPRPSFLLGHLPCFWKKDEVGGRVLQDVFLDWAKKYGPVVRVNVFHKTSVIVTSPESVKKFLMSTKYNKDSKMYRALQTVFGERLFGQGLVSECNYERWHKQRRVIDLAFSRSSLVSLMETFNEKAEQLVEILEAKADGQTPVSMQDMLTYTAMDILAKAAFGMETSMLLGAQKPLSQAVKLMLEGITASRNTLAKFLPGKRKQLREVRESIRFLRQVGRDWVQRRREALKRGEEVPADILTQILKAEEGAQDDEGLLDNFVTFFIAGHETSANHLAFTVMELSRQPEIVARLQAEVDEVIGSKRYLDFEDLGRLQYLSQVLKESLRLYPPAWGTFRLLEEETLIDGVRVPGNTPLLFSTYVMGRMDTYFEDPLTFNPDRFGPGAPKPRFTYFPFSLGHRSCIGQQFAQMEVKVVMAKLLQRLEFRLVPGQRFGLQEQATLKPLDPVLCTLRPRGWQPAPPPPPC

On to `C[C@@H](c1ncncc1F)[C@](O)(Cn1cncn1)c1ccc(F)cc1F` [Voriconazole], for which the IC50 on CYP46A1 [1] turned out to be 12.2 µM.

On to `CC(C)CCC[C@@H](C)[C@H]1CC[C@H]2[C@@H]3CC=C4C[C@@H](O)CC[C@]4(C)[C@H]3CC[C@]12C` [cholesterol], for which the “turnover to 24-hydroxycholesterol by human CYP46A1 microsomes, LC-MS/MS” value on CYP46A1 [2] is on record as “We also developed an in vitro assay using cholesterol as a substrate”.

A word on the IC50: it is the concentration needed to halve the response being measured.
